# Several values for one entry are separate records, joined by “and”; a condition that tells them apart may be missing. Identical values can stand only once. Like-named read-outs stand apart in the source and are kept apart here.
# Assays:
# Assay type in all cases: biochemical
# amylase [1] = assay: Amylase activity of B. subtilis Alkaline Protease composition after oxidizing agent treatment (Food Chemicals Codex method); settings: for Amylase % loss: 75 min
# protease [2] = target: protease (Bacillus subtilis, UniProt P04189); assay: Protease activity of B. subtilis Alkaline Protease composition after oxidizing agent treatment (Food Chemicals Codex method)
# Chain of protease (Bacillus subtilis, UniProt P04189) (P04189 107-381): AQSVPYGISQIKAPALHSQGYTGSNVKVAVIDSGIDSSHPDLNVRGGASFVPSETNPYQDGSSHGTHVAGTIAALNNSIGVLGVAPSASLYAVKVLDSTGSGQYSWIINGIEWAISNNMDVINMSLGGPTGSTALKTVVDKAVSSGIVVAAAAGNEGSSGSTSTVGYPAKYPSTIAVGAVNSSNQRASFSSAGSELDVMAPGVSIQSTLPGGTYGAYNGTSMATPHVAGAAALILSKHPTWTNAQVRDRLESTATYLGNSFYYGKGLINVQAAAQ
# amylase [3] = target: T1, amylase (Sus scrofa, UniProt P00690); assay: Amylase activity of pancreatin after hypochlorite treatment
# T1 construct: purchased Cudahy Co; host or cells: pancreas (pancreatin)
# T1 sequence (P00690 16-511): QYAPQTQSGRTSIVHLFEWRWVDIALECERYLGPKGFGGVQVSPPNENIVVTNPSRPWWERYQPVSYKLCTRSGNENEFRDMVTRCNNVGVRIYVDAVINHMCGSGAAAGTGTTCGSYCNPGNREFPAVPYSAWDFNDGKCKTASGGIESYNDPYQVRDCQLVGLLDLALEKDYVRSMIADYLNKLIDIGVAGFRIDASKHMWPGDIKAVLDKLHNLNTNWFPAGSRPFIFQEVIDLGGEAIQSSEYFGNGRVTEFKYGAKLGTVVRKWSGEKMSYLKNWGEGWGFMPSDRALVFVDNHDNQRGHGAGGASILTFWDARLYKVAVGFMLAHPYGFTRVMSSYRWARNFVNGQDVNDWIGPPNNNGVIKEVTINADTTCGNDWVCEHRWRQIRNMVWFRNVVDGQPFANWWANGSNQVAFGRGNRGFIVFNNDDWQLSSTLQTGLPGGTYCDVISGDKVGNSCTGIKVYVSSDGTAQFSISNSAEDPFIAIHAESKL
# Procedure: (§1) Pancreatin obtained from the Cudahy Co. was dissolved in isotonic salt solution (0.9% NaCl) to a concentration of 3.13 g. in 25 g. of solution. The solution pH was 6.5. Sodium hypochlorite solution (Clorox®) was added and the increments equalized by the addition of isotonic salt solution. The isotonic salt solution is used to avoid potency degradation of the solution upon standing. A similar lack of effect was noted when using an enzyme solution having a pH of 5.8 rather than 6.5. The enzyme mixture was treated for 11/4 hr. at room temperature and then assayed for protease and amylase activity. As in the prior Examples, the percent sodium hypochlorite is based on the solids content of the enzyme solution.
# (§2) ^1, ^2 Amylase and protease activity were assayed by the same
# protease [4] = assay: Protease activity of pancreatin after hypochlorite treatment; parameters: Protease Activity: unit not given beside the values; settings: for Protease Activity: pH 6.5, 0% control 27,300; for Protease % loss: pH 6.5, 75 min
# Procedure: as §1, §2
# amylase [5] = assay: Amylase inactivation in dry enzyme mixture from Bacillus subtilis culture filtrate, spray dried product; settings: 0.35% NaOCl based on weight of dry mixture, pH 6.2-6.6
# Procedure: (§3) Twenty five pounds of an unstandarized, dry enzyme mixture, obtained by drying the clarified culture filtrate from the aerobic fermentation of Bacillus subtilis in an aqueous nutrient culture medium containing assimilable C, N and mineral salts, and which was determined to contain neutral protease, alkaline protease and amylase, is admixed with one hundred pounds of water at 70°-85° F. and agitated to facilitate solution. The solution is adjusted to pH 6.2-6.6 by slow addition of 20% aqueous NaOH solution. Then, 1.67 pounds of Clorox® (containing 5.25% NaOCl) is slowly admixed with the foregoing enzyme solution to thereby result in the addition of 0.0877 pounds or 0.35% NaOCl based on the weight of the dry mixture.
# [6] = system: protease (both neutral and alkaline); assay: Protease retention in dry enzyme mixture from Bacillus subtilis culture filtrate, spray dried product; settings: 0.35% NaOCl based on weight of dry mixture; pH 6.2-6.6; final spray dried material vs starting material
# Procedure: as §3
# [7] = Table II, treated solution, 0.3% based on weight of enzyme composition, final pH 6.5
# [8] = Table III, spray-dried product, 0.3% based on weight of enzyme composition
molecule,measurement,setting,value
"OO [hydrogen peroxide, reference compound]",Amylase Activity,amylase [1],1250
same,selective inactivation of amylase compared with hypochlorite (in words),amylase [1],substantially less effective in selectively inactivating amylase
same,Amylase Activity,amylase [1]; pH 6.4,236
same,Protease Activity,protease [2],"157,512"
same,Protease Activity,protease [2]; pH 6.4,"29,579"
"[Na+].[O-][Cl+2]([O-])[O-] [sodium chlorate, reference compound]",effect on amylase activity,amylase [1],Neither of these salts had any effect
same,effect on protease activity,protease [2],Neither of these salts had any effect
OCl [sodium hypochlorite],Amylase Activity,"amylase [1]; 0.125% ion salt, pH 6.3, 0% control 583",242
same,Amylase % loss,"amylase [1]; 0.125% ion salt, pH 6.3",55%
same,Amylase Activity,"amylase [1]; 0.25% ion salt, pH 6.3, 0% control 583",16
same,Amylase % loss,"amylase [1]; 0.25% ion salt, pH 6.3",97%
same,Amylase Activity,"amylase [1]; 0.40% ion salt, pH 6.3, 0% control 583",11
same,Amylase % loss,"amylase [1]; 0.40% ion salt, pH 6.3",98%
same,Amylase Activity,amylase [1]; [7],3
same,Amylase Activity,amylase [1]; [8],15
same,Protease Activity,"protease [2]; 0.125% ion salt, pH 6.3, 0% control 25,900","25,100"
same,Protease Activity,"protease [2]; 0.25% ion salt, pH 6.3, 0% control 25,900","25,900"
same,Protease Activity,"protease [2]; 0.40% ion salt, pH 6.3, 0% control 25,900","24,600"
same,inhibition at 0.125 %,"protease [2]; 1.25 h, 0.125% ion salt, pH 6.3, read-out: Protease % loss",3%
same,inhibition at 0.25 %,"protease [2]; 1.25 h, 0.25% ion salt, pH 6.3, read-out: Protease % loss",0%
same,inhibition at 0.4 %,"protease [2]; 1.25 h, 0.40% ion salt, pH 6.3, read-out: Protease % loss",5%
same,Protease Activity,protease [2]; [7],"27,365"
same,Protease Activity,protease [2]; [8],"147,650"
same,Amylase Activity,"amylase [3]; 1.8% on solids content, pH 6.5, room temperature, 0% control 1075",467
same,Amylase Activity,"amylase [3]; 3.6% on solids content, pH 6.5, 0% control 1075",31
same,Amylase Activity,"amylase [3]; 7.2% on solids content, pH 6.5, 0% control 1075",3
same,Amylase Activity,"amylase [3]; 10.8% on solids content, pH 6.5, 0% control 1075",0
same,inhibition at 1.8 %,"amylase [3]; 1.25 h, 1.8% on solids content, pH 6.5, read-out: Amylase % loss",57%
same,inhibition at 3.6 %,"amylase [3]; 1.25 h, 3.6% on solids content, pH 6.5, read-out: Amylase % loss",97%
same,inhibition at 7.2 %,"amylase [3]; 1.25 h, 7.2% on solids content, pH 6.5, read-out: Amylase % loss",100%
same,inhibition at 10.8 %,"amylase [3]; 1.25 h, 10.8% on solids content, pH 6.5, read-out: Amylase % loss",100%
same,Protease Activity,protease [4]; 1.8% on solids content,"28,400"
same,Protease % loss,protease [4]; 1.8% on solids content,0%
same,Protease Activity,protease [4]; 3.6% on solids content,"24,800"
same,Protease % loss,protease [4]; 3.6% on solids content,9%
same,Protease Activity,protease [4]; 7.2% on solids content,"19,100"
same,Protease % loss,protease [4]; 7.2% on solids content,30%
same,Protease Activity,protease [4]; 10.8% on solids content,"11,200"
same,Protease % loss,protease [4]; 10.8% on solids content,59%
same,amylase destruction (in words),amylase [5],immediately destroys the amylase
same,amylase inactivated,amylase [5]; final spray dried material vs starting material,about 98%
same,protease retained in the final product,[6],greater than 90%
"[O-][Cl+3]([O-])([O-])O [sodium perchlorate, reference compound]",effect on amylase activity,amylase [1],Neither of these salts had any effect
same,effect on protease activity,protease [2],Neither of these salts had any effect
sodium chlorite,Amylase % loss,"amylase [1]; b. subtilis amylase, pH 6.3, 75 min",99%
same,Protease % loss,"protease [2]; b. subtilis alkaline protease, pH 6.3, 75 min, 75 min",0% and 1% and 8%
same,Protease Activity,protease [2]; pH 6.3,"40,800 and 39,900 and 37,200"

# Reference: patent US4086139A, “Differential inactivation of amylase in amylase-protease mixtures” (GB Fermentation Industries Inc., priority 1976, dated 1978)
